Reference: ChEMBL document CHEMBL4138172, “Synthesis of bis-indolylmethanes as new potential inhibitors of β-glucuronidase and their molecular docking studies” (Eur J Med Chem, 2018)

Biological target: T1, Beta-glucuronidase (Homo sapiens, UniProt P08236)
T1 sequence (P08236 whole entry): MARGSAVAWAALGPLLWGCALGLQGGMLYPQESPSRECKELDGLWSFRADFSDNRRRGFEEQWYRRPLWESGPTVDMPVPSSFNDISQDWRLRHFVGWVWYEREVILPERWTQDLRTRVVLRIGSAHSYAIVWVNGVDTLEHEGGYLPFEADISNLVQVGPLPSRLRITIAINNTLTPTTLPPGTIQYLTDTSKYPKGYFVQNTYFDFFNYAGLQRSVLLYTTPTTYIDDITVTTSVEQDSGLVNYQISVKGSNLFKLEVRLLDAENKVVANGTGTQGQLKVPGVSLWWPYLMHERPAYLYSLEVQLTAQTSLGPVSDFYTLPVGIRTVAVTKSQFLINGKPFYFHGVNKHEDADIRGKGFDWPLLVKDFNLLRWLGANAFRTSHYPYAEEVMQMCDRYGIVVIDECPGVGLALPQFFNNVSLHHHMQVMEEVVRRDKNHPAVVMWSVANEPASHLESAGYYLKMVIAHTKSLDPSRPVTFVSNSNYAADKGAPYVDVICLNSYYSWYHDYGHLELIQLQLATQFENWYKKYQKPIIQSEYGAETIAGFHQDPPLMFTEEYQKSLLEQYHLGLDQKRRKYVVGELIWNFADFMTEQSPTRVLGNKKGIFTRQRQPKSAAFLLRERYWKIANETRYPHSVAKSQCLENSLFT
Experiment: Inhibition of human beta-glucuronidase

Question: Which IC50 does the source give for Cc1ccc(C(c2c[nH]c3ccc(C(=O)N/N=C/c4ccccn4)cc23)c2c[nH]c3ccc(C(=O)N/N=C/c4ccccn4)cc23)cc1 here?
Answer: 13.1 µM

Question: For Cc1ccc(C(c2c[nH]c3ccc(C(=O)N/N=C/c4ccc(F)cc4)cc23)c2c[nH]c3ccc(C(=O)N/N=C/c4ccc(F)cc4)cc23)cc1, which IC50 is on record?
Answer: 2.8 µM

Question: Cc1ccc(C(c2c[nH]c3ccc(C(=O)N/N=C/C=C/c4ccccc4)cc23)c2c[nH]c3ccc(C(=O)N/N=C/C=C/c4ccccc4)cc23)cc1 was tested. Which IC50 did it give?
Answer: 2.98 µM

Question: With Cc1ccc(C(c2c[nH]c3ccc(C(=O)N/N=C/c4ccc(Cl)cc4)cc23)c2c[nH]c3ccc(C(=O)N/N=C/c4ccc(Cl)cc4)cc23)cc1 as the compound, how does the IC50 read?
Answer: 5.8 µM

Question: How did the IC50 turn out when Cc1ccc(C(c2c[nH]c3ccc(C(=O)N/N=C/c4cccc([N+](=O)[O-])c4)cc23)c2c[nH]c3ccc(C(=O)N/N=C/c4cccc([N+](=O)[O-])c4)cc23)cc1 was run?
Answer: 7.57 µM

Question: How did the IC50 turn out when Cc1ccc(C(c2c[nH]c3ccc(C(=O)N/N=C/c4ccccc4F)cc23)c2c[nH]c3ccc(C(=O)N/N=C/c4ccccc4F)cc23)cc1 was run?
Answer: 1.2 µM

Question: Cc1ccc(C(c2c[nH]c3ccc(C(=O)N/N=C/c4ccc(F)c(Br)c4)cc23)c2c[nH]c3ccc(C(=O)N/N=C/c4ccc(F)c(Br)c4)cc23)cc1 was tested. Which IC50 did it give?
Answer: 15.8 µM

Question: Cc1ccc(C(c2c[nH]c3ccc(C(=O)N/N=C/c4ccccc4)cc23)c2c[nH]c3ccc(C(=O)N/N=C/c4ccccc4)cc23)cc1 was tested. Which IC50 did it give?
Answer: 42.8 µM

Question: How did the IC50 turn out when Cc1ccc(C(c2c[nH]c3ccc(C(=O)N/N=C/c4cccc(Cl)c4)cc23)c2c[nH]c3ccc(C(=O)N/N=C/c4cccc(Cl)c4)cc23)cc1 was run?
Answer: 6.9 µM

Question: With Cc1ccc(C(c2c[nH]c3ccc(C(=O)N/N=C/c4cccc(F)c4)cc23)c2c[nH]c3ccc(C(=O)N/N=C/c4cccc(F)c4)cc23)cc1 as the compound, how does the IC50 read?
Answer: 2.2 µM

Question: Cc1ccc(C(c2c[nH]c3ccc(C(=O)N/N=C/c4ccc(Cl)cc4Cl)cc23)c2c[nH]c3ccc(C(=O)N/N=C/c4ccc(Cl)cc4Cl)cc23)cc1 was tested. Which IC50 did it give?
Answer: 1.1 µM

Question: With Cc1ccc(C(c2c[nH]c3ccc(C(=O)N/N=C/c4ccccc4C)cc23)c2c[nH]c3ccc(C(=O)N/N=C/c4ccccc4C)cc23)cc1 as the compound, how does the IC50 read?
Answer: 22.2 µM

Question: For Cc1ccc(C(c2c[nH]c3ccc(C(=O)N/N=C/c4cccnc4)cc23)c2c[nH]c3ccc(C(=O)N/N=C/c4cccnc4)cc23)cc1, which IC50 is on record?
Answer: 32.9 µM

Question: Cc1ccc(C(c2c[nH]c3ccc(C(=O)N/N=C/c4ccc(O)c(O)c4)cc23)c2c[nH]c3ccc(C(=O)N/N=C/c4ccc(O)c(O)c4)cc23)cc1 was tested. Which IC50 did it give?
Answer: 0.3 µM

Question: Cc1ccc(/C=N/NC(=O)c2ccc3[nH]cc(C(c4ccc(C)cc4)c4c[nH]c5ccc(C(=O)N/N=C/c6ccc(C)cc6)cc45)c3c2)cc1 was tested. Which IC50 did it give?
Answer: 12.5 µM

Question: Cc1ccc(C(c2c[nH]c3ccc(C(=O)N/N=C/c4cccc(O)c4O)cc23)c2c[nH]c3ccc(C(=O)N/N=C/c4cccc(O)c4O)cc23)cc1 was tested. Which IC50 did it give?
Answer: 0.1 µM

Question: For Cc1ccc(C(c2c[nH]c3ccc(C(=O)N/N=C/c4cc(O)c(O)cc4O)cc23)c2c[nH]c3ccc(C(=O)N/N=C/c4cc(O)c(O)cc4O)cc23)cc1, which IC50 is on record?
Answer: 0.1 µM

Question: Which IC50 does the source give for COc1ccc(/C=N/NC(=O)c2ccc3[nH]cc(C(c4ccc(C)cc4)c4c[nH]c5ccc(C(=O)N/N=C/c6ccc(OC)cc6O)cc45)c3c2)c(O)c1 here?
Answer: 3.45 µM

Question: Which IC50 does the source give for COc1ccc(/C=N/NC(=O)c2ccc3[nH]cc(C(c4ccc(C)cc4)c4c[nH]c5ccc(C(=O)N/N=C/c6ccc(OC)c(O)c6I)cc45)c3c2)c(I)c1O here?
Answer: 43.5 µM

Question: With COc1ccc(O)c(/C=N/NC(=O)c2ccc3[nH]cc(C(c4ccc(C)cc4)c4c[nH]c5ccc(C(=O)N/N=C/c6cc(OC)ccc6O)cc45)c3c2)c1 as the compound, how does the IC50 read?
Answer: 2.1 µM

Question: How did the IC50 turn out when COc1ccc(/C=N/NC(=O)c2ccc3[nH]cc(C(c4ccc(C)cc4)c4c[nH]c5ccc(C(=O)N/N=C/c6ccc(OC)cc6)cc45)c3c2)cc1 was run?
Answer: 32.8 µM

Question: With Cc1ccc(C(c2c[nH]c3ccc(C(=O)N/N=C/c4ccccc4[N+](=O)[O-])cc23)c2c[nH]c3ccc(C(=O)N/N=C/c4ccccc4[N+](=O)[O-])cc23)cc1 as the compound, how does the IC50 read?
Answer: 48.5 µM

Question: With Cc1ccc(C(c2c[nH]c3ccc(C(=O)N/N=C/c4ccc(O)cc4)cc23)c2c[nH]c3ccc(C(=O)N/N=C/c4ccc(O)cc4)cc23)cc1 as the compound, how does the IC50 read?
Answer: 2.35 µM

Question: Which IC50 does the source give for COc1ccc(/C=N/NC(=O)c2ccc3[nH]cc(C(c4ccc(C)cc4)c4c[nH]c5ccc(C(=O)N/N=C/c6ccc(OC)c(O)c6)cc45)c3c2)cc1O here?
Answer: 2.67 µM

Question: Which IC50 does the source give for Cc1ccc(C(c2c[nH]c3ccc(C(=O)N/N=C/c4cccc(C)c4)cc23)c2c[nH]c3ccc(C(=O)N/N=C/c4cccc(C)c4)cc23)cc1 here?
Answer: 33.5 µM

Question: Cc1ccc(C(c2c[nH]c3ccc(C(=O)N/N=C/c4cc(O)ccc4O)cc23)c2c[nH]c3ccc(C(=O)N/N=C/c4cc(O)ccc4O)cc23)cc1 was tested. Which IC50 did it give?
Answer: 1.14 µM

Question: Cc1ccc(C(c2c[nH]c3ccc(C(=O)N/N=C/c4ccccc4O)cc23)c2c[nH]c3ccc(C(=O)N/N=C/c4ccccc4O)cc23)cc1 was tested. Which IC50 did it give?
Answer: 1.5 µM

Question: Cc1ccc(C(c2c[nH]c3ccc(C(=O)N/N=C/c4ccccc4Cl)cc23)c2c[nH]c3ccc(C(=O)N/N=C/c4ccccc4Cl)cc23)cc1 was tested. Which IC50 did it give?
Answer: 2.8 µM

Question: How did the IC50 turn out when Cc1ccc(C(c2c[nH]c3ccc(C(=O)N/N=C/c4cccc(O)c4)cc23)c2c[nH]c3ccc(C(=O)N/N=C/c4cccc(O)c4)cc23)cc1 was run?
Answer: 5.87 µM

Question: Cc1ccc(C(c2c[nH]c3ccc(C(=O)N/N=C/c4ccc(O)cc4O)cc23)c2c[nH]c3ccc(C(=O)N/N=C/c4ccc(O)cc4O)cc23)cc1 was tested. Which IC50 did it give?
Answer: 0.3 µM

Question: For Cc1ccc(C(c2c[nH]c3ccc(C(=O)N/N=C/c4ccncc4)cc23)c2c[nH]c3ccc(C(=O)N/N=C/c4ccncc4)cc23)cc1, which IC50 is on record?
Answer: 23.4 µM

Question: Cc1ccc(C(c2c[nH]c3ccc(C(=O)N/N=C/c4c(O)cc(O)cc4O)cc23)c2c[nH]c3ccc(C(=O)N/N=C/c4c(O)cc(O)cc4O)cc23)cc1 was tested. Which IC50 did it give?
Answer: 0.2 µM
